{"source": "patent US20190224238A1", "about": "“TUMOR THERAPEUTIC DRUG” (HUBEI SOUNDNY BIO TECH CO., LTD., priority 2016, published 2019)", "key": {"[1]": {"tested_on": "Lewis cell lung cancer model", "details": "tail vein, once a day for 10 days from 5th day", "experimental": "3) On the 1st day, 1×10^6 Lewis cells were inoculated into a C57BL/6 mouse via tail vein, and a total of 32 C57BL/6 mice were injected to obtain the C57BL/6 mice of Lewis cell lung cancer model which were randomly divided into four groups equally, namely, experiment group 1, experiment group 2, experiment group 3 and control group.\nFrom the 15th day, all of the C57BL/6 mice were fed normally, and the survival status of the C57BL/6 mice in each group was observed."}, "[2]": {"assay": "Toxicity and side effect test in BALB/c mice (GPT, serum creatinine, APTT, PT)", "assay_type": "in vivo", "details": "tail vein, once a day for 7 days; blood on 8th day", "description": "3) The prepared H22-MPs (MTX) was injected into 8 BALB/c mice via tail vein respectively, as the experimental group 1; the prepared Ery-MPs (MTX) was injected into 8 BALM mice via tail vein respectively, as the experimental group 2; 8 mice BALB/c mice were injected with methotrexate via tail vein at a dose of 1 μg/g, as the experimental group 3; 8 mice BALB/c mice were injected with 0.9% (g/ml) physiological saline via tail vein, as the control group.\n4) On the 8th day, venous blood was taken from the mice in the experimental group 1, the experimental group 2, the experimental group 3 and the control group, and the content of glutamic-pyruvic transaminase, creatinine in serum and the content of APTT and PT in the blood were detected. The body weights of the mice were weighed."}, "[3]": {"tested_on": "H22 cell hepatoma ascites model", "assay": "Survival of BALB/c mouse H22 hepatoma ascites model", "assay_type": "in vivo", "details": "until the 34th (H22-MPs), 33th (Ery-MPs), 31th (methotrexate) day; 10 mice per group", "experimental": "3) On the first day, 5×10^4 H22 cells were intraperitoneally inoculated into BALB/c mice, and a total of 40 BALB/c mice were injected to obtain the one with H22 cell hepatoma ascites model, which were randomly divided into four groups equally, namely experimental group 1, experimental group 2, experimental group 3 and control group. The BALB/c mice in experimental group 1 were intraperitoneally injected with H22-MPs (MTX); the BALM mice in experimental group 2 were intraperitoneally injected with Ery-MPs (MTX); the BALB/c mice in experimental group 3 were intraperitoneally injected with methotrexate at a dose of 1 μg/g; and the BALB/c mice in the control group were intraperitoneally injected with 200 μL of 0.9% (g/ml) physiological saline.\n4) From the 4th day, according to the same injection procedure, the experimental groups were injected with H22-MPs (MTX), Ery-MPs (MTX) and chemotherapy drug (methotrexate) once a day for 7 consecutive days, respectively, while the control group was injected with 200 μL 0.9% (g/ml) physiological saline once a day for 7 consecutive days. From the 11th day, all of the BALB/c mice were fed normally, and the survival status of the BALB/c mice in each group was observed."}}}
{"smiles": "CN(Cc1cnc2nc(N)nc(N)c2n1)c1ccc(C(=O)N[C@@H](CCC(=O)O)C(=O)O)cc1", "note": "[methotrexate]", "values": [{"measurement": "therapeutic effect on lung cancer in mice (survival curve)", "setting": "[1]", "result": "much poorer than that of Ery-MPs (MTX) and LLC-MPs (MTX)"}, {"measurement": "average activated partial prothrombin time (APTT)", "setting": "[2]", "result": 16.5, "unit": "s"}, {"measurement": "average plastin time (PT)", "setting": "[2]", "result": 13.13, "unit": "s"}, {"measurement": "average serum creatinine content", "setting": "[2]", "result": 26.13, "unit": "µmol/L"}, {"measurement": "total mice died", "setting": "[3]", "result": 9, "unit": "mice"}]}
